Test results from US8957087B2, “Heterocyclic substituted acardite derivate and application thereof” (Jiangsu Provincial Institute of Materia Medica Co., Ltd., priority 2009, dated 2015).
Read-outs that look alike come from different tables or passages of the source.

Columns and labels:
[1] = system: Raf-1(truncated); experiment: Raf-1 inhibitor screening by chemoluminescence method; format: biochemical; conditions: Final concentration 1 x 1.0*10^−5 mol/ml
Source text: 1. Inhibitory activity of the compound of the present invention on raf kinase
Raf-1 inhibitor screening by chemoluminescence method
Westernblot electrophoresis apparatus Rotaryshaker
Raf-1(truncated), Magnesium/ATP Cocktail, MEK1 unactive

[2] = system: human lung cancer cell strain A549; experiment: MTT assay, inhibition of growth of human lung cancer cell strain A549; format: cell-based
Protocol: 4. Using 3-(4,5-dimethylthiazol-2-yl)-2,5-diphenyl tetrazolium bromide assay (MTT) to detect the inhibition effects on the growth of human lung cancer cell strain A549
[Test materials] MTT working solution, F12 medium containing 10% FBS, continuous injectors
(§1) [Tested compound] Compounds 1-38
(§2) [Positive control medicine] Sorafenib, compounds A′, B′, C′ with no substituent or only amino formyl in A ring
The inhibition rate is calculated as follows:
(§3) Relative OD value of conrol well=OD value of control well−OD value of blank well
(§4) Relative OD value of drug well=OD value of drug well−OD value of blank well

[3] = system: human high-metastic lung cancer cell 95D; experiment: Inhibition of human high-metastic lung cancer cell 95D migration (Boyden Chamber Transwell); format: cell-based; conditions: Final concentration 1 x 1.0*10^(−5) mol/L
Protocol: 5 Inhibition effects of compounds on human high-metastic lung cancer cell 95D migration
[Test materials] Boyden Chamber Transwell chamber (with pore size of 8 μm), human high-metastic lung cancer cell 95D cell strain, 1640 medium containing 10% FBS, 1640 medium containing no serum
as §1, §2
(§5) The inhibition rate is calculated as follows: […]

[4] = system: lung cancer cell A549; experiment: Effects on the adhesive ability of lung cancer cell A549; format: cell-based, human; conditions: Final concentration 1 x 1.0*10^(−5) mol/L
Protocol: 6. Effects of tested compounds on the adhesive ability of lung cancer cell A549
[Test materials] gelatin, CCK8, poly-lysine (PLL), A549 cell stains, 1640 medium containing 10% FBS
(§6) [Tested compound] Compounds 1-38 to be tested
as §2, §5
Dosing dosing cells without cell group (gelatin adhesive OD/PLL adhesion OD)−Dosing cell group (gelatin adhesive OD/PLL adhesion OD value)
Dosing dosing cells without cell group (gelatin adhesive OD/PLL adhesion OD value)

[5] = system: human umbilical vein endothelial cell HUVEC; experiment: Growth of human umbilical vein endothelial cell HUVEC by CCK8 method; format: cell-based; conditions: Final concentration 1 x 1.0*10^(−5) mol/L
Source text: 7. Effects of tested compounds on the growth of human umbilical vein endothelial cell HUVEC cell by CCK8 method
[Test materials] CCK8, human umbilical vein endothelial cell HUVEC cell, 1640 medium containing 10% FBS
as §6, §2, §3, §4

[6] = system: human umbilical vein endothelial cell HUVEC; experiment: Lumen formation ability of HUVEC (Matrigel method); format: cell-based; conditions: Final concentration 1 x 1.0*10^(−5) mol/L
Source text: 8. Inhibition effects of compounds on the lumen formation ability of human umbilical vein endothelial cell HUVEC
[Experimental principles] The human umbilical vein endothelial cells have ability of spontaneously forming blood lumen on Matrigel, which can be used to simulate the process of angiogenesis in vivo. We used Matrigel method to investigate the effects of the compound on the lumen formation ability of human umbilical vein endothelial cell HUVEC.
[Test materials] HUVEC (taking generation 3 to 5 cells for experiments after obtained from primary separation and cultured at 37 under the conditions of 5% CO2), Matrigel, cell culture medium M199.
as §1, §2, §5

[7] = system: human lung cancer A549 transplantation tumor; format: in vivo; conditions: BALB/cA nude mice; 60 mg/kg, 6 times every week for 3 weeks; Sorafenib oral 60 mg/kg
Protocol: 9. Tumor inhibition rate of tested compounds on human lung cancer A549 cell transplantation model in nude mice
(§7) [Test animals] female BALB/cA nude mice, 35-40 days old, with weight of 18-22g. There were 12 mice in the negative conrol group and 6 mice in the treatment group.
(§8) The dosage of the compound was 60 mg/kg, 6 times every week for 3 weeks. […] Equal amount of normal saline was administrated in the negative control group. Observe for one week after administration.

[8] = system: human liver cancer cell bel-7402 transplantation tumor; format: in vivo; conditions: BALB/cA nude mice; 60 mg/kg, 6 times every week for 3 weeks; Sorafenib oral 60 mg/kg
Protocol: 10. Tumor inhibition rate of tested compounds on human liver cancer cell bel-7402 transplantation tumor model in nude mice
as §7, §8

[9] = system: renal carcinoma cell line GCR-1 transplanted tumor; format: in vivo, BALB/cA nude mice; conditions: BALB/cA nude mice; 60 mg/kg, 6 times every week for 3 weeks; Sorafenib oral 60 mg/kg
Protocol: 11. Tumor inhibition rate of medicines on renal carcinoma cell line GCR-1 transplanted tumor model in nude mice
as §7
[Test method] […] The dosage of the medicine was 60 mg/kg, 6 times every week for 3 weeks. […] Equal amount of normal saline was administrated in the negative control group. Observe for one week after administration.

[10] = system: mice S180 sarcoma; experiment: Experimental therapeutic action on S180 sarcoma mice; conditions: mice S180 sarcoma, 60 mg/kg orally for 9 days
Protocol: Experimental therapeutic action of the compound in the present invention on S180 sarcoma mice
18-25 g female ICR mice and well grown 7-11 day old mice sarcoma S180 tumor seeds were selected, and the seeds were inoculated into the subcutaneous at the right axillary. After inoculated 24 hours, these mice were randomly divided into cages and orally administrated 60 mg/kg for 9 days. On 10 day, the animals were killed and weighed, and the tumor weights were weighed to calculate average tumor weight in each group, followed by calculating the tumor inhibition rate according to the following formula and T test.

[11] = system: Human colon cancer HT-29 transplantable tumor; experiment: Human colon cancer HT-29 transplantable tumor in nude mice; conditions: HT-29 in nude mice, 60 mg/kg ig 9 times
[12] = Final concentration 1 x 1.0*10^(−5) mol/L

| SMILES | Inhibition rate % on raf kinase [1] [%] | Inhibition rate, growth of human lung cancer cell A549 [2] [%] | Inhibition rate, 95D cell strain migration [3] [%] | Inhibition rate, adhesion ability of human lung cancer cell A549 [4] [%] | Inhibition rate, growth of HUVEC cell [5] [%] | Inhibition rate, lumen formation ability of HUVEC [6] [%] | Relative tumor reproduction rate T/C (%) on human lung cancer A549 transplantation tumor in nude mice [7] [%] | Relative tumor reproduction rate T/C (%) on human liver cancer cell bel-7402 transplantation tumor model in nude mice [8] [%] | Relative tumor reproduction rate T/C (%) on human renal carcinoma GCR-1 cell transplanted tumor model in nude mice [9] [%] | Tumor growth inhibition rate (%) [10] [%] | Relative tumor reproduction rate T/C (%) [11] [%] | Inhibition rate, growth of human lung cancer cell A549 [2, 12] [%] |
| --- | --- | --- | --- | --- | --- | --- | --- | --- | --- | --- | --- | --- |
| O=C(Nc1ccc(Oc2ncnc3cc(F)ccc23)cc1)Nc1ccc(Cl)c(C(F)(F)F)c1 [Compound 19, N-(4-chloro-3-(trifluoromethyl)phenyl)-N′-(4-(4-(7 fluoroquinazolinyl)oxy)phenyl)urea] | 93.5 | 91.23 | 90.21 | 90.28 | 5.23 | 89.22 | 7.7 | 16.3 | 13.2 | 50.8 | 39.4 | – |
| CNC(=O)c1ncc(Oc2ccc(NC(=O)Nc3ccc(Br)c(C(F)(F)F)c3)cc2)c2ccc(N)cc12 [Compound 12, N-(4-bromo-3-(trifluoromethyl)phenyl)-N′-(4-(2-(N-methylaminoformoxyl)-4-(7-amino-isoquinolyl)oxy)phenyl)urea] | 12.1 | – | 66.79 | 62.30 | 12.31 | 52.37 | 36.3 | 31.6 | 20.5 | 45.7 | 80.5 | 42.31 |
| O=C(Nc1ccc(Oc2ncnc3cc(F)ccc23)cc1)Nc1ccc(Br)c(C(F)(F)F)c1 [Compound 21, N-(4-bromo-3-(trifluoromethyl)phenyl)-N′-(4-(4-(7 fluoroquinazolinyl)oxy)phenyl)urea] | 98.9 | 89.21 | 88.76 | 90.22 | 11.21 | 89.47 | 13.7 | 16.4 | 7.8 | 59.7 | 38.7 | – |
| O=C(Nc1ccc(Oc2ncnc3cc(F)ccc23)cc1)Nc1ccc(F)c(C(F)(F)F)c1 [Compound 20, N-(4-fluoro-3-(trifluoromethyl)phenyl)-N′-(4-(4-(7 fluoroquinazolinyl)oxy)phenyl)urea] | 87.7 | 88.32 | 89.12 | 95.31 | 7.32 | 88.54 | 12.1 | 17.2 | 13.1 | 54.6 | 40.1 | – |
| CNC(=O)c1ncc(Oc2ccc(NC(=O)Nc3ccc(F)c(C(F)(F)F)c3)cc2)c2ccc(N)cc12 [Compound 11, N-(4-fluoro-3-(trifluoromethyl)phenyl)-N′-(4-(2-(N-methylaminoformoxyl)-4-(7-amino-isoquinolyl)oxy)phenyl)urea] | 11.2 | – | 78.66 | 59.63 | 29.20 | 79.63 | 43.7 | 23.7 | 32.1 | 54.2 | 81.2 | 69.20 |
| CNC(=O)c1nc(Oc2ccc(NC(=O)Nc3ccc(F)c(C(F)(F)F)c3)cc2)c2ccc(F)cc2n1 [Compound 5, N-(4-fluoro-3-(trifluoromethyl)phenyl)-N′-(4-(2-(N-methylaminoformoxyl)-4-(7 fluoroquinazolinyl)oxy)phenyl)urea] | 98.9 | – | 97.51 | 87.58 | 8.50 | 87.50 | 11.6 | 15.7 | 11.2 | 49.3 | 38.24 | 93.50 |
| CCNC(=O)c1cc(Oc2ccc(NC(=O)Nc3ccc(Cl)c(OC)c3)c(C)c2)c2ccc([N+](=O)[O-])cc2n1 [Compound 35, N-(4-chloro-3-methoxyphenyl)-N′-(2-methyl-4-(2-(N-ethylcarbamyl)-4-(7-nitryl-quinolinyl)oxy)phenyl)urea] | 45.3 | 55.74 | 68.47 | 75.72 | 5.74 | 65.70 | 23.6 | 34.5 | 32.3 | 55.8 | 51.2 | – |
